According to paper PMC4932537, “Search for Potent and Selective Aurora A Inhibitors Based on General Ser/Thr Kinase Pharmacophore Model” (Pharmaceuticals, 2016):

Legend:
Aurora A = molecular target: T1, Aurora A (Homo sapiens, UniProt O14965); test: Aurora A kinase inhibition (biochemical assay); conditions: Table 2; Mean ± SEM, four repeats; read-out: Aurora A kinase inhibition IC50
T1 sequence (O14965 1-403): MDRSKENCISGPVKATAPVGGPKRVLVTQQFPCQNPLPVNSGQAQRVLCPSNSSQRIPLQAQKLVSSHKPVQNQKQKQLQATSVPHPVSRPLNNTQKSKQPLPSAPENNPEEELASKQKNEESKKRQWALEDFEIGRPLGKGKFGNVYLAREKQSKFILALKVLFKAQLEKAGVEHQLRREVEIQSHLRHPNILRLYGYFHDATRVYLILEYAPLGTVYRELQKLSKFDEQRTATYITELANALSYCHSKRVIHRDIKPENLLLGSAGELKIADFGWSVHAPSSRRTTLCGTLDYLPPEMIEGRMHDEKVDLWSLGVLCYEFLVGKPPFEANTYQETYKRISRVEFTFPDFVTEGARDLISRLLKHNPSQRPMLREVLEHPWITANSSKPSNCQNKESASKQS

Aurora B = Aurora B (Homo sapiens, UniProt Q96GD4); test: Aurora B kinase inhibition; type: biochemical; conditions: Table 3; Mean ± SEM
Aurora B, sequence (Q96GD4 whole entry): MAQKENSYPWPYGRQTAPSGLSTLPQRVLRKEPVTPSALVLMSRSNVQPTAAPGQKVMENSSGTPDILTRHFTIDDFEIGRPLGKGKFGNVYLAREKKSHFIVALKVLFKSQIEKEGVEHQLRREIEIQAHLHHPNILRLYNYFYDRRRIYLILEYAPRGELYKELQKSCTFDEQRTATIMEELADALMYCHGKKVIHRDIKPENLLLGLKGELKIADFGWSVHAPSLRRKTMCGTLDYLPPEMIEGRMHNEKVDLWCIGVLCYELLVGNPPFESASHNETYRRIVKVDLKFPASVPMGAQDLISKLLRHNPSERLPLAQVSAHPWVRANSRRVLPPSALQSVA

c-Kit = c-Kit (Homo sapiens, UniProt P10721); test: c-Kit kinase selectivity; type: biochemical; conditions: Mean ± SEM
c-Kit, sequence (P10721 26-976): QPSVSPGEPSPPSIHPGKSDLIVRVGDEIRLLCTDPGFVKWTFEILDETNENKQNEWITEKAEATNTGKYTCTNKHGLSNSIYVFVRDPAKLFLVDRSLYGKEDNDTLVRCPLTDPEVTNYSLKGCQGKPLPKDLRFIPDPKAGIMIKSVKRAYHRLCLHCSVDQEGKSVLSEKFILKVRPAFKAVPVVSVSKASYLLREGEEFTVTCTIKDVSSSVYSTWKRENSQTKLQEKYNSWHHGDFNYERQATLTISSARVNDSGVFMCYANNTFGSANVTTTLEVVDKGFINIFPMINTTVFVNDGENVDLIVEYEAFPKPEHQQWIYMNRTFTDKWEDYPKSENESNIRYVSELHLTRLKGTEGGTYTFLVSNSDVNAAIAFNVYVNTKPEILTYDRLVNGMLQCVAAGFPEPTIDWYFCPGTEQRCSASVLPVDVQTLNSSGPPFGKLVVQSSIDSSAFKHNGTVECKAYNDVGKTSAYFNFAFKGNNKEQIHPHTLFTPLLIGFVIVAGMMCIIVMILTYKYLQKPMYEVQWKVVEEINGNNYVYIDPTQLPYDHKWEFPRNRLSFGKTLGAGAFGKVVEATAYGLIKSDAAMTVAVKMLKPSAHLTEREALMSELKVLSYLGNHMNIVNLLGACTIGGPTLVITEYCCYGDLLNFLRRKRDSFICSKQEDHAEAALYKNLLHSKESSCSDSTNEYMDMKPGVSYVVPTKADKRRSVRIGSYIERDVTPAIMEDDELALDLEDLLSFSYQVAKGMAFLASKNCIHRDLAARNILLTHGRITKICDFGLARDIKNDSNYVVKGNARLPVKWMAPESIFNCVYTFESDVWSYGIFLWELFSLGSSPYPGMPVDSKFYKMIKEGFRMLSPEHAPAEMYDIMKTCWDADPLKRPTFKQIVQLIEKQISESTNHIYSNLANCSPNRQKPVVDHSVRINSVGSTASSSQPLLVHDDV

CSK = CSK (Homo sapiens, UniProt P41240); test: CSK kinase selectivity; type: biochemical; conditions: Mean ± SEM
CSK, sequence (P41240 whole entry, species assumed): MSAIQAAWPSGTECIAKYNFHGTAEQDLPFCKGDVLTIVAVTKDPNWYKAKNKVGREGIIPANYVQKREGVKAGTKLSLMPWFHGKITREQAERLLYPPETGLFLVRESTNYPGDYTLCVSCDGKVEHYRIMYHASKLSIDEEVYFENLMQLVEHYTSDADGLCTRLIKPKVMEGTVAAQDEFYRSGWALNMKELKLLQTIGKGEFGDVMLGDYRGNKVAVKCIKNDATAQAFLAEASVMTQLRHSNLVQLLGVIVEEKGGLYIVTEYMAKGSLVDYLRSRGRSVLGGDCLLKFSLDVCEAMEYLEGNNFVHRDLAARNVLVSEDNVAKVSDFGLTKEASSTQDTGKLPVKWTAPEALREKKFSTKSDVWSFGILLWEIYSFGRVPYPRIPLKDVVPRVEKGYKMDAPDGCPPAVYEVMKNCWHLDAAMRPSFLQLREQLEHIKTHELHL

EPHA2 = EPHA2 (Homo sapiens, UniProt P29317); test: EPHA2 kinase selectivity; type: biochemical; conditions: Mean ± SEM
JNK3 = JNK3 (Homo sapiens, UniProt P53779); test: JNK3 kinase selectivity; type: biochemical; conditions: Mean ± SEM
JNK3, sequence (P53779 whole entry, species assumed): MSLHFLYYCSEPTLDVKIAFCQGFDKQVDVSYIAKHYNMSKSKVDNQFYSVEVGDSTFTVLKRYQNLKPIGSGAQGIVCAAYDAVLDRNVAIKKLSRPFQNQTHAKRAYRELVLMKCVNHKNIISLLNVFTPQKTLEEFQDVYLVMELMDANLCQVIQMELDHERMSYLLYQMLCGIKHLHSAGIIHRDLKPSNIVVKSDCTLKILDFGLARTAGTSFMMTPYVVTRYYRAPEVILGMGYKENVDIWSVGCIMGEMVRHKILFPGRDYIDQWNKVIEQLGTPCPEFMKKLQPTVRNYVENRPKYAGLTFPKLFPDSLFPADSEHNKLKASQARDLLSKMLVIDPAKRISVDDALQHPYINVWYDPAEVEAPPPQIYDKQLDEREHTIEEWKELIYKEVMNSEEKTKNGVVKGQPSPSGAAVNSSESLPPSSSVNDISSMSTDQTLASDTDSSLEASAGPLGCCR

LYN = LYN (Homo sapiens, UniProt P07948); test: LYN kinase selectivity; type: biochemical; conditions: Mean ± SEM
LYN, sequence (P07948 whole entry, species assumed): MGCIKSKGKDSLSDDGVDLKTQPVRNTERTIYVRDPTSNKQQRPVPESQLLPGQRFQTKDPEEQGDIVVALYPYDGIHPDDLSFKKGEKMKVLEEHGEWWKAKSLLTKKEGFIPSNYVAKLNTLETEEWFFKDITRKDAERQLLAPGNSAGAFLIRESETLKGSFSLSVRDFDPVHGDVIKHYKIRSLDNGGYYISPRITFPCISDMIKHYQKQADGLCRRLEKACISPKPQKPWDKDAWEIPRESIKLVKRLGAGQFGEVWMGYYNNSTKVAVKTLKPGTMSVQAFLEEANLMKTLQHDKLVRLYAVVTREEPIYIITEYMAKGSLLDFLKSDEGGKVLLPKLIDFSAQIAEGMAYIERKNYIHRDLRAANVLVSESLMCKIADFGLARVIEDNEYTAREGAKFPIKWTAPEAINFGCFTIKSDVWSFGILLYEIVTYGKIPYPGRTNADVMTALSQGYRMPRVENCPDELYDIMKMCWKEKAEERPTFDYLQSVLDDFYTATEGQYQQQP

RON = RON (Homo sapiens, UniProt Q04912); test: RON kinase selectivity; type: biochemical; conditions: Mean ± SEM
[1] = Solubility (nephelometry); type: physicochemical; conditions: kinetic from dmso stock
[2] = tested on: HL-60 (acute promyelocytic leukemia); test: MTT cytotoxicity, HL-60; type: cell-based; conditions: Homo sapiens; HL-60, MTT, 72 h
Excerpt: (§1) All cells lines were purchased in ATCC (Manassas, VA, USA), except for human primary fibroblasts (HFB), which were a generous gift from Dashinimaev E.B. (Koltsov Institute of Developmental Biology). H1299 (lung adenocarcinoma), H23 (lung adenocarcinoma), Colo320 (colon carcinoma), RS4;11 (acute lymphoblastic leukemia), PC3 (prostate adenocarcinoma) and HL-60 (acute promyelocytic leukemia) were cultivated in RPMI-1640 medium, with addition of 10% fetal calf serum (HyClone, South Logan, Utah, USA) and 2 mM L-Glutamine at 37 °C, 5% CО2. MDA-MB-453 (mammary adenocarcinoma), A549 (lung adenocarcinoma), HCT-116 (colon carcinoma), A431 (epidermoid carcinoma), MDA-MB-231 (mammary adenocarcinoma), BxPC3 (pancreatic adenocarcinoma), MEF (mouse embryonic fibroblasts, SV-40 immortalized), MEF Bax^−/−/Bak^−/− knockout cells (mouse embryonic fibroblasts, SV-40 immortalized, resistant to apoptosis) were cultivated in DMEM medium, with addition of 10% fetal calf serum (HyClone) and 2 mM L-Glutamine at 37 °C, 5% CО2.
(§2) Cells were seeded in 96-well plates (Corning, NY, USA): 5000 cells per well for adhesive cultures and cells, 25,000 cells per well for suspension cultures. Analyzed substances were added in 0.1–50 μM concentration range, with 2 × dilutions, and incubated for 72 h at 37 °C, 5% CО2. After incubation 20 uL of 5 mg/mL of water solution of 3-(4,5-dimethylthiazol-2-yl)-2,5-diphenyltetrazolium bromide (MTT, PANEKO, Moscow, Russia) was added to the cells and they were incubated for additional 4 h. After the incubation the medium was aspirated, cells were dissolved in 100 uL of DMSO and the optical density was measured at 570 nm with a МultiscanFC plate reader (ThermoScientific, Cambridge, MA, USA). The percentage of surviving cells at each dose was calculated by dividing the optical density of treated cells by the optical density of untreated control (which was taken as 100%). The IC50s were calculated in GraphPad Prism 5.0.

[3] = tested on: H23 (lung adenocarcinoma); test: MTT cytotoxicity, H23; type: cell-based; conditions: 72 h
Excerpt: as §1, §2

[4] = tested on: H1299 (lung adenocarcinoma); test: MTT cytotoxicity, H1299; type: cell-based; conditions: Homo sapiens, NCI-H1299, 72 h
Excerpt: as §1, §2

[5] = tested on: PC3 (prostate adenocarcinoma); test: MTT cytotoxicity, PC3; type: cell-based; conditions: 72 h
Excerpt: as §1, §2

[6] = tested on: MDA-MB-453 (mammary adenocarcinoma); test: MTT cytotoxicity, MDA-MB-453; type: cell-based; conditions: Homo sapiens; MDA-MB-453, MTT, 72 h
Excerpt: as §1, §2

[7] = tested on: RS4;11 (acute lymphoblastic leukemia); test: MTT cytotoxicity, RS4;11; type: cell-based; conditions: Homo sapiens; RS4;11, MTT, 72 h
Excerpt: as §1, §2

[8] = tested on: A-549 (lung adenocarcinoma); test: MTT cytotoxicity, A-549; type: cell-based; conditions: Homo sapiens, A549; A-549, MTT, 72 h
Excerpt: as §1, §2

[9] = tested on: HCT-116 (colon carcinoma); test: MTT cytotoxicity, HCT-116; type: cell-based; conditions: Homo sapiens; HCT-116, MTT, 72 h
Excerpt: as §1, §2

MTT cytotoxicity, HFB = type: cell-based; conditions: human, human primary fibroblasts (HFB)
Excerpt: as §1, §2

[10] = tested on: A431 (epidermoid carcinoma); test: MTT cytotoxicity, A431; type: cell-based; conditions: Homo sapiens, A-431, 72 h
Excerpt: as §1, §2

[11] = tested on: Colo-320 (colon carcinoma); test: MTT cytotoxicity, Colo-320; type: cell-based; conditions: Homo sapiens; Colo-320, MTT, 72 h
Excerpt: as §1, §2

[12] = tested on: MDA-MB231 (mammary adenocarcinoma); test: MTT cytotoxicity, MDA-MB231; type: cell-based; conditions: Homo sapiens, MDA-MB-231, 72 h
Excerpt: as §1, §2

[13] = tested on: BxPC3 (pancreatic adenocarcinoma); test: MTT cytotoxicity, BxPC3; type: cell-based; conditions: Homo sapiens, BXPC-3, 72 h
Excerpt: as §1, §2

[14] = MTT cytotoxicity, MEFs Dko; type: cell-based; conditions: mouse, MEFs Dko (bax−/−bak−/−)
Excerpt: as §1, §2

MTT cytotoxicity, MEF WT = type: cell-based; conditions: mouse
Excerpt: as §1, §2

GSK-3 = GSK-3 kinase selectivity; type: biochemical; conditions: Mean ± SEM
CYP2C19 = CYP2C19 (Homo sapiens, UniProt P33261); test: CYP2C19 inhibition; type: in vitro ADME; conditions: Mean ± SEM
CYP2C19, sequence (P33261 whole entry): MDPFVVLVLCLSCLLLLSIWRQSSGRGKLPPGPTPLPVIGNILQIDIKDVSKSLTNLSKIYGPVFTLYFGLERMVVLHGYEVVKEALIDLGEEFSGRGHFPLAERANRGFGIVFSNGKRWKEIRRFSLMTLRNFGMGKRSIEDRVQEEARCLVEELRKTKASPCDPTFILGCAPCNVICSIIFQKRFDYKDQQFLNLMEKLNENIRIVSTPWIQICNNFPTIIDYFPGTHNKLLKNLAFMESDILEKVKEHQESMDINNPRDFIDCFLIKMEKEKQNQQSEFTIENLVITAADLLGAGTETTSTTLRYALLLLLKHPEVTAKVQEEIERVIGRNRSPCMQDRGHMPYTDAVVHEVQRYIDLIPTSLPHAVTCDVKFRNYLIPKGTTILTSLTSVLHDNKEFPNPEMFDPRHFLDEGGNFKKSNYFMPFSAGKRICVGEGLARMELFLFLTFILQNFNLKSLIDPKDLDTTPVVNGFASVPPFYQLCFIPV

CYP 2C9 = CYP 2C9 (Homo sapiens, UniProt P11712); test: CYP 2C9 inhibition; type: in vitro ADME; conditions: Mean ± SEM
CYP 2C9, sequence (P11712 whole entry): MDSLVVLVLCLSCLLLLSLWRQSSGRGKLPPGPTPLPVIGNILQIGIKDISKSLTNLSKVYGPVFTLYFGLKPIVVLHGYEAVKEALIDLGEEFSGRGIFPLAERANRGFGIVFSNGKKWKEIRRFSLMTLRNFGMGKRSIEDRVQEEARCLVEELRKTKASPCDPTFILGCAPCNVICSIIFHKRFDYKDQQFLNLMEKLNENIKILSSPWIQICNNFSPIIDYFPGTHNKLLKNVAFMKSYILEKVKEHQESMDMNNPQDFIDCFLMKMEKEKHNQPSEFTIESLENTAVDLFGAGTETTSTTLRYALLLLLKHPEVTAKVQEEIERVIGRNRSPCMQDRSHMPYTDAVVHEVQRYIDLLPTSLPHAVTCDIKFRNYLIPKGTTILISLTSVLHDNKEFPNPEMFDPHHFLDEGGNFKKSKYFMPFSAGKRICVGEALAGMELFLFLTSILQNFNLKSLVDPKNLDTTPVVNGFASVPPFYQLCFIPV

CYP3A4 = CYP3A4 (Homo sapiens, UniProt P08684); test: CYP3A4 inhibition; type: in vitro ADME; conditions: Mean ± SEM
CYP3A4, sequence (P08684 whole entry): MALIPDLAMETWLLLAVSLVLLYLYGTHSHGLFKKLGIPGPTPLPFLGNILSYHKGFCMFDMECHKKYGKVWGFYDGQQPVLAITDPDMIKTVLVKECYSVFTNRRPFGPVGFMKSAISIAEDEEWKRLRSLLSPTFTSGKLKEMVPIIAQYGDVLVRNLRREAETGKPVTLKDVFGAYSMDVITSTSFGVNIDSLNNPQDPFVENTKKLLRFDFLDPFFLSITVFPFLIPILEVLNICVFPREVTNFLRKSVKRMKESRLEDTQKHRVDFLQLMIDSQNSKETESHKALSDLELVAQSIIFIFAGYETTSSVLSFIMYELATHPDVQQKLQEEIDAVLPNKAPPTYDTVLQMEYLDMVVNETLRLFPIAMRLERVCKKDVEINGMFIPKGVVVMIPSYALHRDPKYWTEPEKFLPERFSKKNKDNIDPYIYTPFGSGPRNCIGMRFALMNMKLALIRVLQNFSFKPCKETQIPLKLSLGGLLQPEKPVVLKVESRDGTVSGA

## Cc1cc(Nc2ncc(Cl)s2)nc(CC2CCN(C(=O)c3cccc(Cl)c3F)CC2)n1 [Compound 13, (3-Chloro-2-fluoro-phenyl)-{4-[4-(5-chloro-thiazol-2-ylamino)-6-methyl-pyrimidin-2-ylmethyl]-piperidin-1-yl}-methanone]
Aurora A
  IC50: 0.0041 ± 0.00035 µM
Aurora B
  IC50: 0.232 ± 0.0241 µM
c-Kit
  IC50: 17 µM
CSK
  IC50: 9.5 ± 0.101 µM
EPHA2
  IC50: 9 ± 0.985 µM
JNK3
  IC50: 0.0852 ± 0.0091 µM
LYN
  IC50: 3.27 ± 0.324 µM
RON
  IC50: 0.97 ± 0.101 µM
[1]
  solubility: < 10 µg/mL
[2]
  IC50: 20.9 ± 2.1 µM
[3]
  IC50: 1.2 ± 0.09 µM
[4]
  IC50: 1.1 ± 0.1 µM
[5]
  IC50: 3.9 ± 0.4 µM
[6]
  IC50: 8 ± 0.79 µM
[7]
  IC50: 1.1 ± 0.11 µM
[8]
  IC50: 5.1 ± 0.4 µM
[9]
  IC50: 4.4 ± 0.5 µM
MTT cytotoxicity, HFB
  IC50 at 72 h: 2.8 ± 0.3 µM
[10]
  IC50: 6.1 ± 0.7 µM
[11]
  IC50: 1 ± 0.11 µM
[12]
  IC50: 10.5 ± 1.1 µM
[13]
  IC50: 2.4 ± 0.14 µM
[14]
  IC50 at 48 h: 3.6 ± 0.3 µM
MTT cytotoxicity, MEF WT
  IC50 at 48 h: 2.5 ± 0.3 µM
other
  melting point: 221 to 223 °C

## Cc1cc(Nc2ccn[nH]2)nc(CC2CCN(C(=O)c3cccc(Cl)c3F)CC2)n1 [Compound 14, (3-Chloro-2-fluoro-phenyl)-{4-[4-methyl-6-(2H-pyrazol-3-ylamino)-pyrimidin-2-ylmethyl]-piperidin-1-yl}-methanone]
Aurora A
  IC50: 0.0053 ± 0.00046 µM
Aurora B
  IC50: 18.3 µM
c-Kit
  IC50: 21 µM
GSK-3
  IC50: 0.109 ± 0.0121 µM
JNK3
  IC50: 1.63 ± 0.167 µM
CYP2C19
  IC50: 9.6 ± 0.96 µM
CYP 2C9
  IC50: 3.9 ± 0.401 µM
CYP3A4
  IC50: 15.1 ± 0.151 µM
[1]
  solubility: > 100 µg/mL
other
  melting point: 125 to 128 °C

## Cc1cc(Nc2cccc(CC3CCN(C(=O)c4cccc(Cl)c4F)CC3)n2)[nH]n1 [Compound 15, (3-Chloro-2-fluoro-phenyl)-{4-[6-(5-methyl-2H-pyrazol-3-ylamino)-pyridin-2-ylmethyl]-piperidin-1-yl}-Methanone]
Aurora A
  IC50: 0.0175 ± 0.0021 µM
[2]
  IC50: 38.8 ± 3.2 µM
[3]
  IC50: > 50 µM
[4]
  IC50: 3.7 ± 0.3 µM
[5]
  IC50: 9.7 ± 1 µM
[6]
  IC50: 5.7 ± 0.6 µM
[7]
  IC50: 0.1 ± 0.02 µM
[8]
  IC50: 5.7 ± 0.6 µM
[9]
  IC50: 2.8 ± 0.3 µM
MTT cytotoxicity, HFB
  IC50 at 72 h: 3 ± 0.2 µM
[10]
  IC50: 6.8 ± 0.7 µM
[11]
  IC50: 1 ± 0.12 µM
[12]
  IC50: > 50 µM
[13]
  IC50: 7.2 ± 0.6 µM
[14]
  IC50 at 48 h: 3 ± 0.2 µM
MTT cytotoxicity, MEF WT
  IC50 at 48 h: 0.9 ± 0.08 µM
other
  melting point: 120 to 122 °C

## Cc1cc(Nc2ccnc(CC3CCN(C(=O)c4cccc(Cl)c4F)CC3)n2)[nH]n1 [Compound 16, (3-Chloro-2-fluoro-phenyl)-{4-[4-(5-methyl-2H-pyrazol-3-ylamino)-pyrimidin-2-ylmethyl]-piperidin-1-yl}-methanone]
Aurora A
  IC50: 0.0035 ± 0.00029 µM
Aurora B
  IC50: 4.182 ± 0.0401 µM
GSK-3
  IC50: 0.293 ± 0.0312 µM
JNK3
  IC50: 0.572 ± 0.0561 µM
CYP2C19
  IC50: 0.966 ± 0.0941 µM
CYP 2C9
  IC50: 0.327 ± 0.033 µM
CYP3A4
  IC50: 0.596 ± 0.0601 µM
[1]
  solubility: > 100 µg/mL
[2]
  IC50: > 50 µM
[3]
  IC50: > 50 µM
[4]
  IC50: 1.5 ± 0.12 µM
[5]
  IC50: 8.3 ± 0.8 µM
[6]
  IC50: 12 ± 1.2 µM
[7]
  IC50: 0.3 ± 0.02 µM
[8]
  IC50: 8.8 ± 0.9 µM
[9]
  IC50: 4.2 ± 0.4 µM
MTT cytotoxicity, HFB
  IC50 at 72 h: 3.3 ± 0.3 µM
[10]
  IC50: 9 ± 1 µM
[11]
  IC50: 1.2 ± 0.03 µM
[12]
  IC50: > 50 µM
[13]
  IC50: 8.1 ± 0.8 µM
[14]
  IC50 at 48 h: 4.5 ± 0.5 µM
MTT cytotoxicity, MEF WT
  IC50 at 48 h: 0.9 ± 0.1 µM
